Drawing on US5985900A, “Metalloproteinase inhibitors, pharmaceutical compositions containing them and their pharmaceutical uses” (Agouron Pharmaceuticals, Inc., priority 1998, dated 1999), this text covers Ki for 23 compounds.

Structures are written as SMILES. Where two headings read alike, the source gives them in different places.

Assay type in all cases: biochemical
Assay [1] concerns the target human progelatinase A (GelA) (Homo sapiens, UniProt P08253). In words: In vitro MMP inhibition assay (hydrolysis of fluorogenic MCA peptide substrate), gelatinase A. Here is the method: The catalytic and fibronectin-like portion of human progelatinase A (GelA) was expressed as a fusion protein with ubiquitin in E. Coli. Assays were carried out on autocatalytically activated material.
(§1) Assays were performed in assay buffer (50 mM Tricine pH 7.5, 200 mM sodium chloride, 10 mM calcium chloride, 0.5 mM zinc acetate containing 2% dimethyl sulfoxide (DMSO)) once the substrate and inhibitor were diluted into it. Stock solutions of inhibitors were prepared in 100% DMSO. Stock solutions of the substrate were prepared in 100% DMSO at a concentration of 6 mM.
(§2) The assay method was based on the hydrolysis of MCA-Pro-Leu-Gly-Leu-DPA-Ala-Arg-NH2 (American Peptide Co.) at 37° C. (see Knight, C. G. et al., FEBS, 1992, 296, 263-266). The fluorescence changes were monitored with a Perkin-Elmer LS-50B fluorimeter using an excitation wavelength of 328 nm and an emission wavelength of 393 nm. The substrate concentration used in the assays was 10 μM. The inhibitor was diluted into the assays from a solution in 100% DMSO, and controls substituted an equal volume of DMSO so that the final DMSO concentration from inhibitor and substrate dilution in all assays was 2%. […] Proper determination of steady-state rates of substrate cleavage required assay lengths of 60 minutes to allow for complete equilibration of the enzyme-inhibitor complex.
(§3) The Km for the MCA peptide substrate with the matrix metalloproteinases is quite high and exceeds its solubility under assay conditions. Consequently, the apparent Ki (Ki,app) was determined to describe the strength of inhibition. However, in this case, Ki,app would be essentially equal to Ki since [S]<<Km. For the determination of Ki,app, the concentration of the inhibitor was varied at a constant and low concentration of substrate and the steady-state rates of fluorescence change determined. In most cases absorptive quench due to the presence of ligand was not observed. For slow-binding inhibitors, onset of inhibition curves were collected for at least 45 minutes so that equilibrium was established. Steady-state rates of fluorescence change were obtained by fitting a curve to an equation for a single exponential decay containing a linear phase. The fitted value of the linear phase was taken as the steady-state rate. The steady-state rates were fitted to the Michaelis equation describing competitive inhibition by non-linear methods. Data resulting from tight-binding inhibition was analyzed, and Ki,app determined by fitting the data to the tight-binding equation of Morrison (Biochem. Biophys. Acta, vol. 185, pp. 269-286 (1969)) by non-linear methods.
(§4) All Ki values are in nM units.

In the next assay the target is human stromelysin (Sln) (Homo sapiens, UniProt P08254). As to the kind of experiment: In vitro MMP inhibition assay (hydrolysis of fluorogenic MCA peptide substrate), stromelysin. Here is the method:
The catalytic domain of human stromelysin (Sln) was obtained by expression and purification of a C-terminally truncated prostromelysin-1 from E. coli host BL21 (see Marcy et al. Biochem., 1991, 30, 6476). The subsequent activation of the mature form (Sln) was completed with 2 mM APMA for 1 hour at 37° C., followed by separation using a sizing column.
as §1, §2, §3, §4

For assay [2], the target named is T1, human collagenase-3 (Coll3) (Homo sapiens, UniProt P45452).
T1 construct: catalytic domain liberated with APMA
As to the kind of experiment: In vitro MMP inhibition assay (hydrolysis of fluorogenic MCA peptide substrate), collagenase-3. Particulars: Table 1; Ki,app; MCA peptide substrate 10 μM, 37° C., pH 7.5, 2% DMSO. Here is the method: The propeptide and catalytic domain of human collagenase-3 (Coll3) was expressed in E. coli as an N-terminal fusion protein with ubiquitin. After purification of the fusion from inclusion bodies, the catalytic domain was liberated by treatment with 2 mM APMA at room temperature overnight. Final purification was completed using copper chelate chromatography.
as §1, §2, §3, §4

The mark [3] stands for this setting: Table 1, Ki,app, MCA peptide substrate 10 μM, 37° C., pH 7.5, 2% DMSO, read-out: Gel A.
The mark [4] stands for this setting: Table 1, Ki,app, MCA peptide substrate 10 μM, 37° C., pH 7.5, 2% DMSO, read-out: Sin Ki.

human stromelysin (Sln), sequence (P08254 100-272 limits assumed): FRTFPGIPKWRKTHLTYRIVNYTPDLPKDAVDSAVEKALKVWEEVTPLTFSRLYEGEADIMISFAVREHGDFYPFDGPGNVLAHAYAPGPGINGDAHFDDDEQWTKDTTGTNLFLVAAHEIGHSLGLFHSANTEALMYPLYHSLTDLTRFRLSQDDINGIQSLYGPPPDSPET
human progelatinase A (GelA), sequence (P08253 110-446 limits assumed): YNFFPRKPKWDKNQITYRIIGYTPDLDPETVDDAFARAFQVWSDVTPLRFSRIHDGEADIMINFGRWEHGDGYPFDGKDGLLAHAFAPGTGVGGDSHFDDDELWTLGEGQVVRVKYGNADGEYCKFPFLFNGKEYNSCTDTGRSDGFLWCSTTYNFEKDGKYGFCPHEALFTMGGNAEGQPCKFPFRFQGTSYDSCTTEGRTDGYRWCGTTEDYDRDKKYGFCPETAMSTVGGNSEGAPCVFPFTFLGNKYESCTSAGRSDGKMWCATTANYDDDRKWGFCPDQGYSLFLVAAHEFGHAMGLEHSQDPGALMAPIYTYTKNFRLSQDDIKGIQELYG

With `CC(C)(SCc1ccccn1)[C@@H](NS(=O)(=O)c1ccc(Oc2ccc(C#N)cc2)cc1)C(=O)O` [Example 3h, N-[4-(4-Cyanophenoxy)benzenesulfonyl]--S--[(pyrid-2-yl)methyl]-D-penicillamine], the Ki in assay [1] (setting [3]) came to 73 nM; at human stromelysin (Sln) (setting [4]), 8200 nM; in assay [2], 258 nM.

For `Cc1cc(CSC(C)(C)[C@@H](NS(=O)(=O)c2ccc(Oc3ccncc3)cc2)C(=O)NO)no1` [Example 10a, 2(S)--N-hydroxy-3-methyl-3-(5-methylisoxazol-3-yl)methylsulfanyl-2-[(4-(pyrid-4-yloxy)benzenesulfonyl)amino]butanamide], the values for the Ki (in assay [1] (setting [3]); on human stromelysin (Sln) (setting [4])) were 0.32 nM and 11.4 nM, respectively.

`CC(C)(C)OC(=O)CSC(C)(C)[C@@H](NS(=O)(=O)c1ccc(Oc2ccc(F)cc2)cc1)C(=O)O` [Example 3n, S--(t-Butoxycarbonyl)methyl--N--[4-(4-fluorophenoxy)benzenesulfonyl]-D-penicillamine]: the results for the Ki (in assay [1] (setting [3]); at human stromelysin (Sln) (setting [4]); in assay [2]) were 183 nM, 5700 nM and 574 nM, respectively.

Take `CC(C)(C)[C@@H](NS(=O)(=O)c1ccc(Oc2ccccn2)cc1)C(=O)O` [Example 4d]: the Ki in assay [1] (setting [3]) was 11000 nM; at human stromelysin (Sln) (setting [4]) it was 274000 nM; in assay [2], 27000 nM.

For `CC(C)(SCc1ccccn1)[C@@H](NS(=O)(=O)c1ccc(Oc2ccc(C(F)(F)F)cc2)cc1)C(=O)O` [Example 3j, N-[4-(4-(trifluoromethyl)phenoxy)benzenesulfonyl]--S--[(pyrid-2-yl)methyl]-D-penicillamine], the Ki in assay [1] (setting [3]) was 48 nM; at human stromelysin (Sln) (setting [4]), 2950 nM.

Take `CC(C)(C)[C@@H](NS(=O)(=O)c1ccc(Oc2ccc(F)cc2)cc1)C(=O)O` [Example 3q, N-[4-(4-Fluorophenoxy)benzenesulfonyl]-D-tert-leucine]: the results for the Ki (in assay [1] (setting [3]); at human stromelysin (Sln) (setting [4]); in assay [2]) were 150 nM, 14000 nM and 1180 nM, respectively.

Consider `Cc1cc(CSC(C)(C)[C@@H](NS(=O)(=O)c2ccc(Oc3ccc(Br)cc3)cc2)C(=O)O)no1` [Example 3k, N-[4-(4-Bromophenoxy)benzenesulfonyl]--S--[(5-methylisoxazol-3-yl)-methyl]-D-penicillamine], for which the Ki was 4.2 nM in assay [1] (setting [3]), 2600 nM at human stromelysin (Sln) (setting [4]) and 209 nM in assay [2].

Regarding `Cc1cc(CSC(C)(C)[C@@H](NS(=O)(=O)c2ccc(Oc3ccncc3)cc2)C(=O)O)no1` [Example 4b, S--[(5-Methylisoxazol-3-yl)methyl]--N--[4(pyrid-4-yl)oxybenzenesulfonyl]-D-penicillamine], the Ki worked out at 27 nM in assay [1] (setting [3]) and 751 nM at human stromelysin (Sln) (setting [4]).

On to `CC(C)(SCc1nccn1Cc1ccccc1)[C@@H](NS(=O)(=O)c1ccc(Oc2ccc(F)cc2)cc1)C(=O)O` [Example 3a, S--[(1-Benzyl-1H-imidazol-2-yl)methyl]--N--[4-(4-fluorophenoxy)benzenesulfonyl]-D-penicillamine], for which the Ki came to 11 nM in assay [1] (setting [3]), 1300 nM at human stromelysin (Sln) (setting [4]) and 200 nM in assay [2].

`CSC(C)(C)[C@@H](NS(=O)(=O)c1ccc(Oc2ccccc2)cc1)C(=O)NO` [Example 9a, 2(S)--N--Hydroxy-3-methyl-3-methylsulfanyl-2-[(4-phenoxybenzenesulfonyl)amino]butanamide]: the Ki in assay [1] (setting [3]) was 0.069 nM; on human stromelysin (Sln) (setting [4]) it was 2.2 nM; in assay [2] it was 0.067 nM.

For the compound `Cc1ccc(Oc2ccc(S(=O)(=O)N[C@@H](C(=O)NO)C(C)(C)SCc3ccccn3)cc2)cc1` [Example 9g, 2(S)--N-hydroxy-3-methyl-3-(pyrid-2-yl)methylsulfanyl-2-[(4-(4-methylphenoxy)benzenesulfonyl)amino]butanamide], the Ki in assay [1] (setting [3]) was 0.036 nM; at human stromelysin (Sln) (setting [4]) it was 0.73 nM.

For the compound `Cc1cc(CSC(C)(C)[C@@H](NS(=O)(=O)c2ccc(Sc3ccncc3)cc2)C(=O)NO)no1` [Example 10b, 2(S)--N-hydroxy-3-methyl-3-(5-methylisoxazol-3-yl)methylsulfanyl-2-[(4-{(pyrid-4-yl)sulfanyl}benzenesulfonyl)amino]butanamide], the Ki was found to be 0.75 nM in assay [1] (setting [3]), 38 nM at human stromelysin (Sln) (setting [4]) and 1.6 nM in assay [2].

With `CC(C)(SCc1ccccn1)[C@@H](NS(=O)(=O)c1ccc(Oc2ccc(I)cc2)cc1)C(=O)O` [Example 3i, N-[4-(4-Iodophenoxy)benzenesulfonyl]--S--[(pyrid-2-yl)methyl]-D-penicillamine], the Ki in assay [1] (setting [3]) amounted to 3.3 nM; on human stromelysin (Sln) (setting [4]) it was 1180 nM; in assay [2], 196 nM.

For `COC(=O)CCSC(C)(C)[C@@H](NS(=O)(=O)c1ccc(Oc2ccc(F)cc2)cc1)C(=O)O` [Example 7, S--[2-(Methoxycarbonyl)ethyl]--N--[4-(4-fluorophenoxy)benzenesulfonyl]-D-penicillamine], the figures for the Ki (in assay [1] (setting [3]); at human stromelysin (Sln) (setting [4])) were 165 nM and 10500 nM, respectively.

As to `CC(C)(SCc1ccccn1)[C@@H](NS(=O)(=O)c1ccc(Oc2ccc(I)cc2)cc1)C(=O)NO` [Example 9f, 2(S)--N-hydroxy-3-methyl-3-(pyrid-2-yl)methylsulfanyl-2-[(4-(4-iodophenoxy)benzenesulfonyl)amino]butanamide], the results for the Ki (on human stromelysin (Sln) (setting [4]); in assay [2]) were 0.29 nM and 0.015 nM, respectively.

As for `CC(C)(SCCC(N)=O)[C@@H](NS(=O)(=O)c1ccc(Oc2ccc(F)cc2)cc1)C(=O)O` [Example 8b, S--[2-(Aminocarbonyl)ethyl]--N--[4-(4-fluorophenoxy)benzenesulfonyl]-D-penicillamine], the Ki in assay [1] (setting [3]) amounted to 334 nM; on human stromelysin (Sln) (setting [4]) it was 5700 nM.

For `Cn1ccnc1CSC(C)(C)[C@@H](NS(=O)(=O)c1ccc(Oc2ccc(Br)cc2)cc1)C(=O)O` [Example 3o], the Ki in assay [1] (setting [3]) worked out at 34 nM; on human stromelysin (Sln) (setting [4]), 2150 nM.

As to `Cn1ccnc1CSC(C)(C)[C@@H](NS(=O)(=O)c1ccc(Oc2ccc(Br)cc2)cc1)C(=O)NO` [Example 9n, 2(S)--N-hydroxy-3-methyl-3-(1-methyl-1H-imidazol-2-yl)-methylsulfanyl-2-[(4-(4-bromophenoxy)benzenesulfonyl)amino]butanamide], the Ki in assay [1] (setting [3]) turned out to be 0.11 nM; at human stromelysin (Sln) (setting [4]), 0.2 nM.

Take `Cc1cc(CSC(C)(C)[C@@H](NS(=O)(=O)c2ccc(Oc3ccc(F)cc3)cc2)C(=O)NO)no1` [Example 9c, 2(S)--N-hydroxy-3-methyl-3-(5-methylisoxazol-3-yl)methylsulfanyl-2-[(4-(4-fluorophenoxy)benzenesulfonyl)amino]butanamide]: the Ki in assay [1] (setting [3]) turned out to be 0.024 nM; on human stromelysin (Sln) (setting [4]) it was 0.63 nM.

For the compound `CC(C)(O)[C@@H](NS(=O)(=O)c1ccc(Oc2ccc(Br)cc2)cc1)C(=O)O` [Example 3s, N-[4-(4-Bromophenoxy)benzenesulfonyl]-D--(β-hydroxy)valine], the Ki worked out at 900 nM in assay [1] (setting [3]) and 348000 nM on human stromelysin (Sln) (setting [4]).

With `Cc1ccc(S(=O)(=O)NCC(=O)NO)cc1` [Compound 13, N-hydroxy-2-(toluene-4-sulfonylamino)acetamide, reference compound], the Ki in assay [1] (Table 2, comparative example, gelatinase A, read-out: GELATINASE Kj) was 3500 nM; at human stromelysin (Sln) (Table 2, comparative example, read-out: STROMELYSIN Ki), 3400 nM.

Regarding `CC(C)(SCCO)[C@@H](NS(=O)(=O)c1ccc(Oc2ccc(F)cc2)cc1)C(=O)O` [Example 8a, S--[2-Hydroxyethyl]--N--[4-(4-fluorophenoxy)benzenesulfonyl]-D-penicillamine], the Ki in assay [1] (setting [3]) amounted to 373 nM; on human stromelysin (Sln) (setting [4]), 12500 nM.

Regarding `Cc1cc(CSC(C)(C)[C@@H](NS(=O)(=O)c2ccc(Oc3ccc(Br)cc3)cc2)C(=O)NO)no1` [Example 9d, 2(S)--N-hydroxy-3-methyl-3-(5-methylisoxazol-3-yl)methylsulfanyl-2-[(4-(4-bromophenoxy)benzenesulfonyl)amino]butanamide], the Ki on human stromelysin (Sln) (setting [4]) is 0.24 nM; in assay [2] it was 0.013 nM.
